{"source": "patent US20090311292A1", "about": "“PROCESS FOR SYNTHESIS AND INCORPORATION OF NITRIC OXIDE DONORS IN MACROMOLECULAR COMPOSITIONS” (CRISTALIA PRODUTOS QUIMICOS FARMACEUTICOS LTDA., priority 2006, published 2009)", "key": {"[1]": {"details": "25° C. in the dark, 0.1 to 61.0 mmol L^−1, follow-up 3.5 hours; cited from earlier work"}, "[2]": {"details": "incorporated in PEO-PPO-PEO gel at 37° C.; cited from earlier work"}, "[3]": {"experiment": "Stability of GSNO incorporated in PEO-PPO-PEO matrix (Pluronic F-127) under refrigeration", "type": "physicochemical", "details": "for Content (%) 30 days / Content (%) 45 days / Content (%) 110 days / Content (%) Initial: 5-8° C."}, "[4]": {"experiment": "Stability of solid GSNO stored at room temperature (absorbance at 336 nm)", "type": "physicochemical", "details": "amber glass vials, room temperature (25° C.)", "method": "Samples of solid GSNO were stored in amber glass vials and maintained at room temperature (25° C.) for evaluation of its stability. GSNO content in the samples at day 0, after 48 hours (day 2) and after 5 days was quantified from the absorbance readings of the aqueous solutions 500 μmol L^−1 at 336 nm. […] According to the results, after 48-hours of storage at room temperature, decomposition of approximately 52% of the initial GSNO content occurs."}, "[5]": {"system": "excisional wound on the back of Wistar rats", "experiment": "Cutaneous wound healing in an animal model (excisional wound)", "type": "in vivo", "text": "6.1. Acceleration of cutaneous wound healing in an animal model. […] The formulation of freshly prepared GSNO (100 μmol L^−1) was topically applied to the wounds of the animals. Wistar rats (n=10) were housed in individual cages with free access to water. In the first day (Day 0-d0), an excisional wound (2×2 cm) was made on the back of the animals, under general anesthesia. The wound was covered with either pure hydrogel (control animals) or GSNO-containing hydrogel (treated group). Thereafter, the wounds were closed with a dressing. Daily, up to the fourth day after injury, the dressings were removed, and the wounds were gently cleaned with cold saline. The hydrogel (either containing GSNO or not) was applied and the dressing was replaced. From the fifth day after injury on, the wounds were no longer closed with a dressing.\nWound retraction was measured and reepithelization was evaluated histologically. Wound contours were traced in a transparent paper sheet at the day of injury and after 3, 5, 7, 14 and 21 days. The tracing area was determined using image-analysis software (Image-Pro) and the results were expressed as percentages of the initial area. Blood pressure was measured at the beginning and end of the experiments. After euthanasia, a fragment containing the wound and the adjacent healthy skin was removed. The fragments were fixed in formalin solution, processed and embedded in paraffin. The paraffin-embedded specimens were serially sectioned and 5-μm-thick cuts were obtained and stained using the following techniques: hematoxylin-eosin (for overall observation of the tissue fragment), picro-Mallory (for observation of the connective tissue) and picrosirius red (for observation of the collagen fibers). The blood pressure of the control and treated animals was equivalent at the beginning and end of the experiments."}, "[6]": {"experiment": "Stability of solid glutathione at 30° C. and 40° C. (UV-visible spectrophotometry after conversion to GSNO)", "type": "physicochemical", "details": "for Content (%) 30 days / Content (%) 70 days / Content (%) 105 days / Content (%) 165 days / Content (%) Initial: solid", "method": "Samples of solid glutathione (GSH) were stored in amber glass vials and maintained at temperatures of 30° C. and 40° C. for evaluation of its stability. GSH content in the samples was determined by UV-visible spectrophotometry from the reaction between GSH and NaNO2 in acid medium (aqueous HCl solution, 2.0 mol L^−1) forming GSNO with absorption bands at 336 nm and 545 nm. GSNO formation (0.05 mol L^−1) was quantified by the intensity of the GSNO absorption band at 545 nm."}, "[7]": {"details": "50 μmolL^−1 in hydrogel formulation"}, "[8]": {"details": "100 μmolL^−1 in hydrogel formulation"}, "[9]": {"details": "200 μmolL^−1 in hydrogel formulation"}, "[10]": {"details": "twenty-one days after injury, superficial and deep areas"}}}
{"compound": "N[C@@H](CSN=O)C(=O)O", "note": "[S-nitrosocysteine, reference compound]", "values": [{"measurement": "thermal decomposition of aqueous solution", "setting": "[1]", "result": "undergo spontaneous thermal decomposition"}]}
{"compound": "CC(=O)N[C@@H](CSN=O)C(=O)O", "note": "[SNAC, S-nitroso-N-acetylcysteine]", "values": [{"measurement": "initial rate of thermal decomposition", "setting": "[2]", "result": 7.2, "unit": "μmolL^−1 min^−1"}, {"measurement": "thermal decomposition of aqueous solution", "setting": "[1]", "result": "undergo spontaneous thermal decomposition"}]}
{"compound": "N[C@@H](CCC(=O)N[C@@H](CSN=O)C(=O)NCC(=O)O)C(=O)O", "note": "[GSNO, S-nitrosoglutathione]", "values": [{"measurement": "initial rate of thermal decomposition", "setting": "[2]", "result": 2.3, "unit": "μmolL^−1 min^−1"}, {"measurement": "Content (%) 30 days", "setting": "[3]; [7]", "result": "96 ± 6", "unit": "%"}, {"measurement": "Content (%) 45 days", "setting": "[3]; [7]", "result": "89 ± 6", "unit": "%"}, {"measurement": "Content (%) 110 days", "setting": "[3]; [7]", "result": "85 ± 6", "unit": "%"}, {"measurement": "Content (%) Initial", "setting": "[3]; [7]", "result": "100 ± 6", "unit": "%"}, {"measurement": "Content (%) 30 days", "setting": "[3]; [8]", "result": "103 ± 6", "unit": "%"}, {"measurement": "Content (%) 45 days", "setting": "[3]; [8]", "result": "100 ± 6", "unit": "%"}, {"measurement": "Content (%) 110 days", "setting": "[3]; [8]", "result": "80 ± 6", "unit": "%"}, {"measurement": "Content (%) Initial", "setting": "[3]; [8]", "result": "100 ± 6", "unit": "%"}, {"measurement": "Content (%) 30 days", "setting": "[3]; [9]", "result": "90 ± 6", "unit": "%"}, {"measurement": "Content (%) 45 days", "setting": "[3]; [9]", "result": "90 ± 6", "unit": "%"}, {"measurement": "Content (%) 110 days", "setting": "[3]; [9]", "result": "85 ± 6", "unit": "%"}, {"measurement": "Content (%) Initial", "setting": "[3]; [9]", "result": "100 ± 6", "unit": "%"}, {"measurement": "decrease in relation to the initial GSNO content", "setting": "[3]; in PEO-PPO-PEO matrix, 50, 100 and 200 μmol L^−1, 110 days at 5-8° C.", "result": "about 20%"}, {"measurement": "thermal decomposition of aqueous solution", "setting": "[1]", "result": "undergo spontaneous thermal decomposition"}, {"measurement": "Content (%) After 2 days", "setting": "[4]", "result": "48 ± 6", "unit": "%"}, {"measurement": "Content (%) After 5 days", "setting": "[4]", "result": "36 ± 6", "unit": "%"}, {"measurement": "Content (%) Initial (day 0)", "setting": "[4]", "result": "100 ± 6", "unit": "%"}, {"measurement": "area of wound reepithelization larger compared to the control group", "setting": "[5]; 7 days after injury", "result": "> 77", "unit": "%"}, {"measurement": "wound retraction versus control group", "setting": "[5]; after 3, 5 and 7 days of injury (p=0.01; p=0.05; p=0.007), GSNO-containing hydrogel 100 μmol L^−1", "result": "greater"}, {"measurement": "new epidermis formation compared to the control animals", "setting": "[5]; after 14 and 21 days of injury", "result": "more accentuated"}, {"measurement": "wound contraction in relation to the controls", "setting": "[5]; after 14 and 21 days of injury", "result": "greater"}, {"measurement": "blood pressure of control and treated animals", "setting": "[5]; beginning and end of the experiments, GSNO 100 μmol L^−1 in Pluronic F-127 hydrogel, topical", "result": "equivalent"}, {"measurement": "wound area in control animals larger than in GSNO-treated animals", "setting": "[5]; fourteen days after injury", "result": 22, "unit": "%"}, {"measurement": "number of microvessels in relation to the control group", "setting": "[5]; twenty-one days after injury", "result": "tendency of increase"}, {"measurement": "total number of mast cells in deep areas of the granulation tissue compared to the control group", "setting": "[5]; twenty-one days after injury", "result": "+384%"}, {"measurement": "wound area in control animals larger than in GSNO-treated animals", "setting": "[5]; twenty-one days after injury", "result": 20, "unit": "%"}, {"measurement": "inflammatory cells in granulation tissue of control group in comparison to GSNO-treated group", "setting": "[5]; [10]", "result": "larger number"}, {"measurement": "number of fibroblasts in granulation tissue compared to the control group", "setting": "[5]; [10]", "result": "increase"}]}
{"compound": "N[C@@H](CCC(=O)N[C@@H](CS)C(=O)NCC(=O)O)C(=O)O", "note": "[GSH, glutathione]", "values": [{"measurement": "time remained stable", "setting": "[6]; solid form, follow up by UV-visible spectrophotometry", "result": "at least 165 days"}, {"measurement": "Content (%) 30 days", "setting": "[6]; 30° C.", "result": "100 ± 6", "unit": "%"}, {"measurement": "Content (%) 70 days", "setting": "[6]; 30° C.", "result": "102 ± 6", "unit": "%"}, {"measurement": "Content (%) 105 days", "setting": "[6]; 30° C.", "result": "103 ± 6", "unit": "%"}, {"measurement": "Content (%) 165 days", "setting": "[6]; 30° C.", "result": "100 ± 6", "unit": "%"}, {"measurement": "Content (%) Initial", "setting": "[6]; 30° C.", "result": "100 ± 6", "unit": "%"}, {"measurement": "Content (%) 30 days", "setting": "[6]; 40° C.", "result": "100 ± 6", "unit": "%"}, {"measurement": "Content (%) 70 days", "setting": "[6]; 40° C.", "result": "100 ± 6", "unit": "%"}, {"measurement": "Content (%) 105 days", "setting": "[6]; 40° C.", "result": "99 ± 6", "unit": "%"}, {"measurement": "Content (%) 165 days", "setting": "[6]; 40° C.", "result": "101 ± 6", "unit": "%"}, {"measurement": "Content (%) Initial", "setting": "[6]; 40° C.", "result": "100 ± 6", "unit": "%"}]}
